From ChEMBL document CHEMBL1157737, “Natural ortho-dihydroxyisoflavone derivatives from aged Korean fermented soybean paste as potent tyrosinase and melanin formation inhibitors” (Bioorg Med Chem Lett, 2010)

Columns and labels:
Tyrosinase = target: T1, Tyrosinase (Mus musculus, UniProt P11344); assay: Inhibition of tyrosinase in mouse Melan-a cells by ELISA; type: cell-based
T1 sequence (P11344 whole entry): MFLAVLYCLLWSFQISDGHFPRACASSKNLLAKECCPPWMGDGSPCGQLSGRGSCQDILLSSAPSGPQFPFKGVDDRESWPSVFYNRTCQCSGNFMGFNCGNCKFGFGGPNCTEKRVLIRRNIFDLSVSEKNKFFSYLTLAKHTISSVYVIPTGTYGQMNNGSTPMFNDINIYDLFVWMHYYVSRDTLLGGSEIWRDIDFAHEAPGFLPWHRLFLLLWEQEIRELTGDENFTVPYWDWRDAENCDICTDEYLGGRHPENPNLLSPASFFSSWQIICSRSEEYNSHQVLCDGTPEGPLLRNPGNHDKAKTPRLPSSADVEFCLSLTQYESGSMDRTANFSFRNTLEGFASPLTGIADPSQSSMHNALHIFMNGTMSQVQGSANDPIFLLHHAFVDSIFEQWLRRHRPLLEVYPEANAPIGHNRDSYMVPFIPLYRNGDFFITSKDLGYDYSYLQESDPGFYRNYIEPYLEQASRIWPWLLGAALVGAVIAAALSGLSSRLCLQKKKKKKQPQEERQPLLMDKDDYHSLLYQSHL

[1] = Antioxidant activity assessed as superoxide radical scavenging activity after 2 mins by NBT reduction assay; type: functional
Melan-a = assay: Inhibition of melanin formation in mouse Melan-a cells after 5 days by ELISA; type: functional, cell-based; settings: 120 h

Compound	IC50 (Tyrosinase) [µM]	IC50 [1] [µM]	IC50 (Melan-a) [µM]
O=c1c(-c2ccc(O)c(O)c2)coc2cc(O)ccc12	5.23	10.5	7.83
O=c1c(-c2ccc(O)cc2)coc2cc(O)c(O)cc12	> 500	> 500	> 500
O=c1c(-c2ccc(O)cc2)coc2cc(O)cc(O)c12 [GENISTEIN]	> 500	489	57.8
O=c1c(-c2ccc(O)cc2)coc2c(O)c(O)ccc12	11.2	18.1	12.2
COc1cc2c(=O)c(-c3ccc(O)cc3)coc2cc1O [GLYCITEIN]	> 500	> 500	> 500
OC[C@H]1O[C@@H](Oc2ccc(O)cc2)[C@H](O)[C@@H](O)[C@@H]1O [ARBUTIN]	–	–	98
O=c1c(-c2ccc(O)cc2)coc2cc(O)ccc12 [DAIDZEIN]	> 500	> 500	> 500
O=C1O[C@H]([C@@H](O)CO)C(O)=C1O [ASCORBIC ACID]	–	65.1	–
